According to patent publication US9260485B2 (priority 2009, dated 2016):
Where two headings read alike, the source gives them in different places. Square brackets hold non-standard residues; d marks the D form. Peptide text beside a SMILES is read from it. ξ: configuration not given here. Hica(2S) = CC(C)C[C@H](O)C(=O)O; ξLac(3-iPr) = CC(C)CC(O)C(=O)O; NMeL = CN[C@@H](CC(C)C)C(=O)O

Key:
[1] = tested on: A549 non-small-cell lung cancer cell line; assay: In vitro cytotoxicity, SRB method; assay type: cell-based, Human
Method: (§1) Known cyclic hexadepsipeptides (beauvericin, enniatin H, I, and MK1688) and the compounds of Chemical Formulas 1 and 2 were evaluated for in vitro cytotoxicity against various non-multidrug-resistant human cancer cell lines and multidrug-resistant cancer cell lines using the SRB method.
(§2) Human non-small-cell lung cancer cell line (A549) ovarian cancer cell line (SK-OV-3), skin cancer cell line (SK-MEL-2), and uterine sarcoma cell line MES-SA and its multi-drug resistant subline (MES-SA/DX5) were purchased from the American Type Culture Collection (USA). Colorectal carcinoma cancer cell line (HCT-15) was provided by the National Cancer Institute (NCI). HCT15/CL02 cell lines were established from HCT15 cells by continuous and stepwise exposure of the cells to doxorubicin in the Korea Research Institute of Chemical Technology (Korea).

[2] = tested on: HCT15 colorectal carcinoma cancer cell line; assay: In vitro cytotoxicity, SRB method; assay type: cell-based, Human
Method: as §1, §2

[3] = tested on: HCT15/CL02 cell line (doxorubicin-selected from HCT15); assay: In vitro cytotoxicity, SRB method; assay type: cell-based, Human
Method: as §1, §2

[4] = tested on: MES-SA uterine sarcoma cell line; assay: In vitro cytotoxicity, SRB method; assay type: cell-based, Human; settings: read-out: EC50 (concentration inhibiting cell growth in vitro by 50%)
Method: as §1, §2

[5] = tested on: MES-SA/DX5 multi-drug resistant subline; assay: In vitro cytotoxicity, SRB method; assay type: cell-based, Human
Method: as §1, §2

[6] = tested on: SK-MEL-2 skin cancer cell line; assay: In vitro cytotoxicity, SRB method; assay type: cell-based, Human
Method: as §1, §2

[7] = tested on: SK-OV-3 ovarian cancer cell line; assay: In vitro cytotoxicity, SRB method; assay type: cell-based, Human
Method: as §1, §2

[8] = tested on: MDR cell lines (MES-SA/DX5 and HCT15/CL02); assay: Multidrug resistance-reversing activity, summary in words; assay type: cell-based, Human
Method: The cyclic pentadepsipeptides of Chemical Formulas 1 and 2 were analyzed for MDR-reversing activity by comparing inhibitory activities against multidrug-resistant cancer cell lines (MES-SA/DX5 and HCT15/CL02) with those against non-multidrug-resistant cancer cell lines (MES-SA and HCT15). In this regard, the effects of the cyclic pentadepsipeptides of Chemical Formulas 1 and 2 on paclitaxel's cytotoxicity against MDR tumor cells were measured (Table 6). […].
Therefore, the N-methyl group in the cyclic pentadepsipeptide may be a factor crucial for the expression of the MDR reversal activity. […]

[9] = tested on: Bacillus cereus ATCC 13061; assay: Anti-bacterial activity, paper disc clear zone; assay type: cell-based; settings: 0.1, 0.5, 1 and 2 mM on paper disc; 37° C., 24 hr
Method: (§3) Assays for antibacterial activity were performed with 3 Gram-positive (Listeria monocytogenes ATCC 14028, Staphylococcus aureus ATCC 35556 and Bacillus cereus ATCC 13061) and 3 Gram-negative bacteria (Escherichia coli ATCC 8739, Pseudomonas aeruginosa ATCC 9026 and Salmonella typhimurium ATCC 14028). Each of the compounds of Chemical Formulas 1 and 2 was dissolved in different concentrations (0.1, 0.5, 1, and 2 mM) in dimethyl sulfoxide (DMSO). The solutions were applied to a sterile paper disc (5 mm diameter), followed by evaporating the DMSO solvent. Bacteria was inoculated at a density of 1×10^7 CFU/ml on Tryptic soy agar (TSA) and then, the paper disc was placed on the bacteria-inoculated agars. After incubation at 37° C. for 24 hr, the clear zone around each disc was observed and its diameter was measured.

[10] = tested on: Escherichia coli ATCC 8739; assay: Anti-bacterial activity, paper disc clear zone; assay type: cell-based; settings: 0.1, 0.5, 1 and 2 mM on paper disc; 37° C., 24 hr
Method: as §3

[11] = tested on: Listeria monocytogenes ATCC 14028; assay: Anti-bacterial activity, paper disc clear zone; assay type: cell-based; settings: 0.1, 0.5, 1 and 2 mM on paper disc; 37° C., 24 hr
Method: as §3

[12] = tested on: Pseudomonas aeruginosa ATCC 9026; assay: Anti-bacterial activity, paper disc clear zone; assay type: cell-based; settings: 0.1, 0.5, 1 and 2 mM on paper disc; 37° C., 24 hr
Method: as §3

[13] = tested on: Salmonella typhimurium ATCC 14028; assay: Anti-bacterial activity, paper disc clear zone; assay type: cell-based; settings: 0.1, 0.5, 1 and 2 mM on paper disc; 37° C., 24 hr
Method: as §3

[14] = tested on: Staphylococcus aureus ATCC 35556; assay: Anti-bacterial activity, paper disc clear zone; assay type: cell-based; settings: 0.1, 0.5, 1 and 2 mM on paper disc; 37° C., 24 hr
Method: as §3

Aspergillus oryzae = assay: Anti-fungal activity, paper disc on mycelia on PDA; assay type: cell-based; settings: 1 mM; 25° C., 48 hr
Method: (§4) Inhibitory activity was performed against four fungus strains (Mucor rouxii, Penicillium citrinum, Fusarium oxysporum, and Aspergillus oryzae).
(§5) Drops of 1 and 10 mM solutions of compounds of Chemical Formulas 1 and 2 in methanol were loaded onto sterile paper discs (8 mm diameter) and the methanol solvent was evaporated under a hood. The paper discs were placed on fungus mycelia grown on potato dextrose agar. After incubation at 25° C. for 48 hr, clear zones around the discs were observed and their diameters were measured. A filter treated with pure methanol was used as a negative control.

Fusarium oxysporum = assay: Anti-fungal activity, paper disc on mycelia on PDA; assay type: cell-based
Method: as §4, §5

Mucor rouxii = assay: Anti-fungal activity, paper disc on mycelia on PDA; assay type: cell-based
Method: as §4, §5

Penicillium citrinum = assay: Anti-fungal activity, paper disc on mycelia on PDA; assay type: cell-based; settings: 1 mM; 25° C., 48 hr
Method: as §4, §5

HCT-116 colon carcinoma = settings: cited from earlier work
[15] = Homo sapiens, A549, read-out: EC50 (concentration inhibiting cell growth in vitro by 50%)
[16] = Homo sapiens, MES-SA/Dx5, read-out: EC50 (concentration inhibiting cell growth in vitro by 50%)
[17] = Homo sapiens, SK-MEL-2, read-out: EC50 (concentration inhibiting cell growth in vitro by 50%)
[18] = Homo sapiens, SK-OV-3, read-out: EC50 (concentration inhibiting cell growth in vitro by 50%)
[19] = Homo sapiens, HCT-15, read-out: EC50 (concentration inhibiting cell growth in vitro by 50%)

CCC(C)C[C@H]1OC(=O)[C@H](C(C)C)N(C)C(=O)[C@@H](CC(C)C)OC(=O)[C@H](C(C)C)N(C)C(=O)[C@@H](C(C)C)OC(=O)[C@H](C(C)C)N(C)C1=O (some centres unmarked) [EN MK1688, Enniatin MK1688]
EC50 ([1]; read-out: EC50 (concentration inhibiting cell growth in vitro by 50%), A549): 0.45 ± 0.04 µM | EC50 ([2]; read-out: EC50 (concentration inhibiting cell growth in vitro by 50%), HCT15): 14 ± 0.54 µM | EC50 ([3]; read-out: EC50 (concentration inhibiting cell growth in vitro by 50%), HCT15/CL02): 16.4 ± 0.84 µM | EC50 [4]: 13.6 ± 1.05 µM | EC50 ([5]; read-out: EC50 (concentration inhibiting cell growth in vitro by 50%), MES-SA/DX5): 13.6 ± 0.79 µM | EC50 ([6]; read-out: EC50 (concentration inhibiting cell growth in vitro by 50%), SK-MEL-2): 0.63 ± 0.01 µM | EC50 ([7]; read-out: EC50 (concentration inhibiting cell growth in vitro by 50%), SK-OV-3): 0.46 ± 0.03 µM

COc1cccc2c1C(=O)c1c(O)c3c(c(O)c1C2=O)C[C@@](O)(C(=O)CO)C[C@@H]3O[C@H]1C[C@H](N)[C@H](O)[C@H](C)O1 [Doxorubicin, doxorubicin]
EC50 [1, 15]: 0.03 ± 0.01 µM | EC50 ([2]; Homo sapiens, HCT-15, read-out: EC50 (concentration inhibiting cell growth in vitro by 50%), HCT15): 0.01 ± 0.001 µM | EC50 ([3]; Homo sapiens, HCT-15, read-out: EC50 (concentration inhibiting cell growth in vitro by 50%), HCT15/CL02): 4.48 ± 2.15 µM | EC50 ([4]; Homo sapiens): 0.01 ± 0.0001 µM | EC50 [5, 16]: 1.03 ± 0.31 µM | EC50 [6, 17]: 0.04 ± 0.01 µM | EC50 [7, 18]: 0.06 ± 0.01 µM

CC(C)CC1OC(=O)[C@H](Cc2ccccc2)NC(=O)[C@H](CC(C)C)NC(=O)[C@H](C(C)C)NC(=O)[C@H](CC(C)C)N(C)C1=O (some centres unmarked) [Com. 2, neo-Nmethylsansalvamide] (cyclo(F[ξLac(3-iPr)][NMeL]VL))
EC50 [1, 15]: 10.7 ± 0.15 µM | EC50 [2, 19]: 12.5 ± 0.71 µM | EC50 [3, 19]: 13.5 ± 1.19 µM | EC50 ([4]; Homo sapiens): 14 ± 0.74 µM | EC50 [5, 16]: 11.4 ± 0.3 µM | EC50 [6, 17]: 10 ± 0.53 µM | EC50 [7, 18]: 11.2 ± 1.23 µM | Effect on the cytotoxicity of paclitaxel against MDR cell lines [8]: remarkably enhanced the cytotoxicity of paclitaxel | Inhibitory activity (clear zone around disc) [9]: Neither the compound of Chemical Formula 1 nor Chemical Formula 2 showed inhibitory activity | Inhibitory activity (clear zone around disc) [10]: Neither the compound of Chemical Formula 1 nor Chemical Formula 2 showed inhibitory activity | Inhibitory activity (clear zone around disc) [11]: Neither the compound of Chemical Formula 1 nor Chemical Formula 2 showed inhibitory activity | Inhibitory activity (clear zone around disc) [12]: Neither the compound of Chemical Formula 1 nor Chemical Formula 2 showed inhibitory activity | Inhibitory activity (clear zone around disc) [13]: Neither the compound of Chemical Formula 1 nor Chemical Formula 2 showed inhibitory activity | Inhibitory activity (clear zone around disc) [14]: Neither the compound of Chemical Formula 1 nor Chemical Formula 2 showed inhibitory activity | Inhibitory activity on mycelial growth (Aspergillus oryzae): No inhibitory activities were detected | Antifungal test, overall result (Fusarium oxysporum): inhibitory against Mucor rouxii, and Fusarium oxysporum, weakly | Inhibitory activity on mycelial growth (Fusarium oxysporum; 1 mM, 25° C., 48 hr): No inhibitory activities were detected | Clear zone / inhibitory effect on mycelium (Fusarium oxysporum; 10 mM, 25° C., 48 hr): exhibited an inhibitory effect at 10 mM, weakly | Antifungal test, overall result (Mucor rouxii): inhibitory against Mucor rouxii, and Fusarium oxysporum, weakly | Inhibitory activity on mycelial growth (Mucor rouxii; 1 mM, 25° C., 48 hr): No inhibitory activities were detected | Clear zone (Mucor rouxii; 10 mM, 25° C., 48 hr): no clear zones were observed | Hyphal growth near the paper disc (Mucor rouxii; 10 mM, 25° C., 48 hr): hyphal growth of Mucor rouxii was reduced | Inhibitory activity on mycelial growth (Penicillium citrinum): No inhibitory activities were detected

CC(C)C[C@@H]1NC(=O)[C@H](C(C)C)NC(=O)[C@H](CC(C)C)OC(=O)[C@H](CC(C)C)NC(=O)[C@H](Cc2ccccc2)NC1=O [sansalvamide] (cyclo(FL[Hica(2S)]VL))
in vitro IC50 (HCT-116 colon carcinoma): 9.8 µg/mL
